What was measured:
[1] = target: T1, human CB1 receptor (Homo sapiens, UniProt P21554); assay: CB1 receptor antagonism, agonist-induced cAMP modulation (HTRF) in transfected CHO cells; assay type: cell-based; conditions: read-out: Antag IC50
T1 construct: expressed in transfected cells; host or cells: CHO cells
Experimental: Receptor antagonism: Evaluation of the antagonist activity of compounds at the human CB1 receptor expressed in transfected CHO cells, determined by measuring their effects on agonist-induced cAMP modulation using the HTRF detection method.
Thereafter, the reference agonist CP 55940 and the adenylyl cyclase activator NKH 477 are added at respective final concentrations of 3 nM and 3 μM.
For basal control measurements, CP 55940 is omitted from the wells containing 3 μM AM 281.
Following 20 min incubation at 37° C., the cells are lysed and the fluorescence acceptor (D2-labeled cAMP) and fluorescence donor (anti-cAMP antibody labeled with europium cryptate) are added.
After 60 min at room temperature, the fluorescence transfer is measured at λex=337 nm and λem=620 and 665 nm using a microplate reader (Rubystar, BMG). The cAMP concentration is determined by dividing the signal measured at 665 nm by that measured at 620 nm (ratio).
The standard reference antagonist is AM 281, which is tested in each experiment at several concentrations to generate a concentration-response curve from which its IC50 value is calculated.

[2] = target: T2, human adenosine A1 receptor (Homo sapiens, UniProt P30542); assay: Inhibition binding assay, human adenosine A1 receptor membranes, [3H]DPCPX; conditions: 1 nM [3H]DPCPX, 25° C., 1 h; IC50 converted to Ki with Cheng-Prusoff; read-out: A1 pKi (converted)
T2 construct: expressed in transfected cells; host or cells: HEK293 cells infected with BacMam (the same paragraph also labels the preparation CHO-hA1)
T2 sequence (P30542 1-326): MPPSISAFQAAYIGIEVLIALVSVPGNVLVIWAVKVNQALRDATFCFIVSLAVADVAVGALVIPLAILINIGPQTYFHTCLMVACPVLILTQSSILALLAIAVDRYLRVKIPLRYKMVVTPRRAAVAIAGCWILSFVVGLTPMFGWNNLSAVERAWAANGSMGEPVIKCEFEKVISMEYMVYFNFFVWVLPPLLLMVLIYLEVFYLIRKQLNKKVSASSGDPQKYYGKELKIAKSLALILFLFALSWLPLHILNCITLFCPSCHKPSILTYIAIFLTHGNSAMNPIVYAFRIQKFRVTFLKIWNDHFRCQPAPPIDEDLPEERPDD
Method in brief: (§1)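 Membranes from BacMam-infected HEK293 cells (0.2 μg A2A, 1.4 μg A1) incubated 1 h at 25° C with test compound and 1 nM [3H]ZM241385 (A2A; 50 mM Tris-HCl pH 7.4) or [3H]DPCPX (A1; plus 100 mM NaCl, 10 mM MgCl2). Nonspecific: 1 μM CGS15943 or DPCPX. Filtration, scintillation; IC50 converted to Ki via Cheng-Prusoff.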

[3] = target: T3, human CB-1 cannabinoid receptor (Homo sapiens, UniProt P21554); assay: CB1 receptor radioligand binding assay, [3H]CP 55940, transfected CHO cell membranes; conditions: 0.5 nM [3H]CP 55940, CHO membrane homogenates, 120 min at 37° C.
T3 construct: expressed in transfected cells; host or cells: CHO cells
Experimental: Nonspecific binding is determined in the presence of 10 μM WIN 55212-2.
Following incubation, the samples are filtered rapidly under vacuum through glass fiber filters (GF/B, Packard) presoaked with 0.3% PEI and rinsed several times with an ice-cold buffer containing 50 mM Tris-HCl (pH 7.4) and 0.5% BSA using a 96-sample cell harvester (Unifilter, Packard). The filters are dried then counted for radioactivity in a scintillation counter (Topcount, Packard) using a scintillation cocktail (Microscint 0, Packard).
The standard reference compound is CP 55940 which is tested in each experiment at several concentrations to obtain a competition curve from which its IC50 is calculated.

[4] = target: T4, human adenosine A2A receptor (Homo sapiens, UniProt P29274); assay: Inhibition binding assay, human adenosine A2A receptor membranes, [3H]ZM241385; conditions: 1 nM [3H]ZM241385, HEK293-hA2A membranes, 25° C., 1 h; IC50 converted to Ki with Cheng-Prusoff; read-out: A2A pKi (converted)
T4 construct: expressed in transfected cells; host or cells: HEK293 cells infected with BacMam
Method in brief: as §1

T4 sequence (P29274 whole entry): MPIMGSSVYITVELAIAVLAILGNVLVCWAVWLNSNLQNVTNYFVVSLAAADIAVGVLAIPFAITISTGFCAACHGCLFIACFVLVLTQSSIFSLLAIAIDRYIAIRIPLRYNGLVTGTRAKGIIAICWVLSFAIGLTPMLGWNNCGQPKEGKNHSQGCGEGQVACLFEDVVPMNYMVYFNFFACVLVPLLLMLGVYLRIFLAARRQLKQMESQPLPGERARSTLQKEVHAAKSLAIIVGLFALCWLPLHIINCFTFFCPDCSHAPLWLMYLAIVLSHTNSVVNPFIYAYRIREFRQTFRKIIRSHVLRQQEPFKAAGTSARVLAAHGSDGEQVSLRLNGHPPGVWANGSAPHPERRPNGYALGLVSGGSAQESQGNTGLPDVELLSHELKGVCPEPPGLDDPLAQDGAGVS
T1 sequence (P21554 whole entry): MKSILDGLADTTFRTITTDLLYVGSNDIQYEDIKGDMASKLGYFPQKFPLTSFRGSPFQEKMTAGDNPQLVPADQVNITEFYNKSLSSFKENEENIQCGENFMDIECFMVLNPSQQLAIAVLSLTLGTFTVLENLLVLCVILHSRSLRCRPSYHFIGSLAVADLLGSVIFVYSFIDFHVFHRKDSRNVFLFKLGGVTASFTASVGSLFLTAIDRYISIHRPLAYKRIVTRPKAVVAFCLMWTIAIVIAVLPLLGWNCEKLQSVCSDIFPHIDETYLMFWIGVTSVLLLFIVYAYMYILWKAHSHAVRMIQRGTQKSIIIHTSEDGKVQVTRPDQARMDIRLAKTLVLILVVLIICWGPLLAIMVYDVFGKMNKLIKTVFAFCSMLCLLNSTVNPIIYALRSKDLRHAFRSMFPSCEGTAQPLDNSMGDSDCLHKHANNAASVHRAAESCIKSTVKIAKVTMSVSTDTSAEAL
T3 sequence (P21554 whole entry): as above

IC50 [1] [nM]	Ki [2] [nM]	Ki [3] [nM]	Ki [4] [nM]	SMILES
> 100000	251	73400	15.8	Cc1cc(-c2c(-c3ccccc3)nc(N)n3c(=O)n(Cc4ccc(F)cn4)nc23)cc(C)[n+]1[O-] [Example 1-42, 5-amino-8-(2,6-dimethyl-1-oxido-pyridin-1-ium-4-yl)-2-[(5-fluoro-2-pyridyl)methyl]-7-phenyl-[1,2,4]triazolo[4,3-c]pyrimidin-3-one]
19500	251	26500	2.51	Cc1cc(-c2c(-c3ccccc3)nc(N)n3c(=O)n(CCOC(F)(F)F)nc23)cc(C)n1 [Example 2-30, 5-amino-8-(2,6-dimethyl-4-pyridyl)-7-phenyl-2-[2-(trifluoromethoxy)ethyl]-[1,2,4]triazolo[4,3-c]pyrimidin-3-one]
1100	398	8200	6.31	Cc1cc(-c2c(-c3ccccc3)nc(N)n3c(=O)n(C4CCCN(C(=O)OC(C)(C)C)C4)nc23)cc(C)n1 (stereo not drawn) [Example 2-54, tert-butyl 3-[5-amino-8-(2,6-dimethyl-4-pyridyl)-3-oxo-7-phenyl-[1,2,4]triazolo[4,3-c]pyrimidin-2-yl]piperidine-1-carboxylate]
26500	501	22000	2	Cc1cc(-c2c(-c3ccccc3)nc(N)n3c(=O)n(CCC(F)(F)F)nc23)cc(C)n1 [Example 2-6, 5-amino-8-(2,6-dimethyl-4-pyridyl)-7-phenyl-2-(3,3,3-trifluoropropyl)-[1,2,4]triazolo[4,3-c]pyrimidin-3-one]
> 100000	501	85000	1.26	Cc1cc(-c2c(-c3ccccc3)nc(N)n3c(=O)n(CCC(F)(F)F)nc23)cc(CO)n1 [Example 2-51, 5-amino-8-[2-(hydroxymethyl)-6-methyl-4-pyridyl]-7-phenyl-2-(3,3,3-trifluoropropyl)-[1,2,4]triazolo[4,3-c]pyrimidin-3-one]
2700	10	4000	0.631	Cc1cc(-c2c(-c3ccccc3)nc(N)n3c(=O)n(C[C@@H]4COCCN4Cc4ccccc4)nc23)cc(C)n1 [Example 1-101, 5-amino-2-[[(3R)-4-benzylmorpholin-3-yl]methyl]-8-(2,6-dimethyl-4-pyridyl)-7-phenyl-[1,2,4]triazolo[4,3-c]pyrimidin-3-one]

Source: patent US12528815B2, “5-amino-8-(4-pyridyl)-[1,2,4]triazolo[4,3-c]pyrimidin-3-one compounds for use against cancer” (Nxera Pharma UK Limited, priority 2020, dated 2026)
